We go through 15 compounds from patent publication US10610564B2, “IRGM and precision autophagy controls for antimicrobial and inflammatory disease states and methods of detection of autophagy” (STC.UNM, priority 2015, dated 2020).

The assay has as its system autophagy. As to the kind of experiment: Autophagy assays identifying autophagy modulators. The class given is cell-based.
Take `CC(C)COCC(CN(Cc1ccccc1)c1ccccc1)N1CCCC1` (stereo not drawn) [bepridil]: the “activity as autophagy modulator” value was “agonists or inducers of autophagy”.

For the compound `CN1CCCC(CC2c3ccccc3Sc3ccccc32)C1` (stereo not drawn) [metixene], the “activity as autophagy modulator” value was “agonists or inducers of autophagy”.

On to `N#Cc1c(Cl)c(Cl)c(Cl)c(C#N)c1Cl` [tetrachlorisophthalonitrile], for which the “activity as autophagy modulator” value is reported as “antagonists or inhibitors of autophagy”.

In the case of `CNCC(O)c1ccc(OC(=O)C(C)(C)C)c(OC(=O)C(C)(C)C)c1` (stereo not drawn) [dipivefrin], the “activity as autophagy modulator” value is on record as “agonists or inducers of autophagy”.

On to `COCCCC/C(=N\OCCN)c1ccc(C(F)(F)F)cc1` [fluvoxamine], for which the “activity as autophagy modulator” value was “agonists or inducers of autophagy”.

Turning to `CC12CC3CC(C)(C1)CC(N)(C3)C2` [memantine], the “activity as autophagy modulator” value is listed as “agonists or inducers of autophagy”.

As to `O=C(Nc1ccccc1)OCC(CN1CCCCC1)OC(=O)Nc1ccccc1` (stereo not drawn) [diperodon], the “activity as autophagy modulator” value is “agonists or inducers of autophagy”.

Regarding `CC(=O)[O-].[Hg+][c]1ccccc1` [phenylmercuric acetate], the “activity as autophagy modulator” value is “antagonists or inhibitors of autophagy”.

As to `CN(Cc1cc(Br)cc(Br)c1N)C1CCCCC1` [bromhexine], the “activity as autophagy modulator” value is recorded as “agonists or inducers of autophagy”.

Consider `CCN(CC)CCOc1ccc(C(=C(Cl)c2ccccc2)c2ccccc2)cc1.O=C(O)CC(O)(CC(=O)O)C(=O)O` [clomiphene citrate (Z,E)], for which the “activity as autophagy modulator” value is given as “agonists or inducers of autophagy”.

In the case of `COC(=O)Nc1nc2cc(C(=O)c3ccc(F)cc3)ccc2[nH]1` [flubendazole], the “activity as autophagy modulator” value is “agonists or inducers of autophagy”.

Turning to `CNCCC=C1c2ccccc2CCc2ccccc21` [nortriptyline], the “activity as autophagy modulator” value was “agonists or inducers of autophagy”.

Consider `CCCCc1cc2ccccc2c(OCCN(C)C)n1` [dimethisoquin], for which the “activity as autophagy modulator” value is recorded as “agonists or inducers of autophagy”.

For the compound `CC[N+](C)(CC)CCC[n+]1c(-c2ccccc2)c2cc(N)ccc2c2ccc(N)cc21.[I-].[I-]` [propidium iodide], the “activity as autophagy modulator” value is listed as “agonists or inducers of autophagy”.

Consider `CNCCC=C1c2ccccc2C=Cc2ccccc21` [norcyclobenzaprine], for which the “activity as autophagy modulator” value was “agonists or inducers of autophagy”.
